Data published in patent US9199962B2, “Substituted azaheterocycles for the treatment of cancer” (Merck Patent GmbH, priority 2011, dated 2015).

Target: T1, GST-FAK (N-terminal GST fusion with truncated human FAK (376-1052 (end) amino acids)) (Homo sapiens, UniProt Q05397)
T1 construct: truncated human FAK (376-1052 (end) amino acids)
Assay: Biochemical enzyme assay for FAK activity (Caliper LC3000 mobility shift)
Details: Table 5; 100 uM ATP; read-out: FAK IC50
Procedure, shortened: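 Inhibitor dose series in DMSO were incubated 90 min at 25 °C with truncated GST-tagged human FAK (0.067 ng/µl) and FITC-labelled peptide substrate (1 µM), with ATP at 100 µM and FERM peptide at 1 mM (pH 7.5 HEPES). After EDTA quench, phosphorylated and unphosphorylated peptides were resolved electrophoretically. Percent conversion was fitted for IC50.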

T1 sequence (Q05397 376-1052): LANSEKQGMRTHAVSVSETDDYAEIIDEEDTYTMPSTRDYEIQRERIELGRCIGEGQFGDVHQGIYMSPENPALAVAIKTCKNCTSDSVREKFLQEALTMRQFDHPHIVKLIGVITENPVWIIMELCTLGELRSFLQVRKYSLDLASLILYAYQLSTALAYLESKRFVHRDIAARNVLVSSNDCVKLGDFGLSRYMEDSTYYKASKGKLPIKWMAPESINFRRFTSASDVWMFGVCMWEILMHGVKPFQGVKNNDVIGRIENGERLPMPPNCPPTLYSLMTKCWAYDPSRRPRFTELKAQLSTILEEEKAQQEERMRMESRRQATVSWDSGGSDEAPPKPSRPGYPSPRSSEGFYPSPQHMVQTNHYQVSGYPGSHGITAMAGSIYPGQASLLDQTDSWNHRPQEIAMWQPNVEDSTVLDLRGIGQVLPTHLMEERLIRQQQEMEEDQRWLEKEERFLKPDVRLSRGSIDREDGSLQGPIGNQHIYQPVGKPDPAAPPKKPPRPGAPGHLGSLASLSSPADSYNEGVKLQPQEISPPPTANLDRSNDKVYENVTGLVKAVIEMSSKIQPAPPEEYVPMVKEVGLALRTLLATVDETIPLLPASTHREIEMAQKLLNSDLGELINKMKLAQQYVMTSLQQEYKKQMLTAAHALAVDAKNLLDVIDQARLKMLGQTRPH

Structure (SMILES)	IC50 [nM]
N#Cc1cncc(-c2nccc(NCc3ccccn3)n2)c1 [Compound 220, 5-{4-[(Pyridin-2-ylmethyl)-amino]-pyrimidin-2-yl}-nicotinonitrile]	1000 to 10000
COc1cncc(-c2nccc(NCc3csc(-c4ccccc4)n3)n2)c1 [Compound 221, [2-(5-Methoxy-pyridin-3-yl)-pyrimidin-4-yl]-(2-phenyl-thiazol-4-ylmethyl)-amine]	> 10000
COc1cncc(-c2nccc(NCc3cc(C)nn3C)n2)c1 [Compound 222, (2,5-Dimethyl-2H-pyrazol-3-ylmethyl)-[2-(5-methoxy-pyridin-3-yl)-pyrimidin-4-yl]-amine]	> 10000
COc1cncc(-c2nccc(NCc3ccc(F)cc3F)n2)c1 [Compound 223, (2,4-Difluoro-benzyl)-[2-(5-methoxy-pyridin-3-yl)-pyrimidin-4-yl]-amine]	< 100
COc1cncc(-c2nccc(NCc3cc(F)c(F)cc3F)n2)c1 [Compound 224, [2-(5-Methoxy-pyridin-3-yl)-pyrimidin-4-yl]-(2,4,5-trifluoro-benzyl)-amine]	100 to 1000
COc1cncc(-c2nccc(NCc3cccc(C#N)c3)n2)c1 [Compound 225, 3-{[2-(5-Methoxy-pyridin-3-yl)-pyrimidin-4-ylamino]-methyl}-benzonitrile]	1000 to 10000
COc1cncc(-c2nccc(NCc3cc(F)ccc3F)n2)c1 [Compound 226, (2,5-Difluoro-benzyl)-[2-(5-methoxy-pyridin-3-yl)-pyrimidin-4-yl]-amine]	100 to 1000
COc1cncc(-c2nccc(NCc3ccccc3)n2)c1 [Compound 227, Benzyl-[2-(5-methoxy-pyridin-3-yl)-pyrimidin-4-yl]-amine]	100 to 1000
COc1cncc(-c2nccc(NCc3ccccn3)n2)c1 [Compound 228, [2-(5-Methoxy-pyridin-3-yl)-pyrimidin-4-yl]-pyridin-2-ylmethyl-amine]	100 to 1000
COc1cncc(-c2nccc(NCc3cccnc3)n2)c1 [Compound 229, [2-(5-Methoxy-pyridin-3-yl)-pyrimidin-4-yl]-pyridin-3-ylmethyl-amine]	1000 to 10000
COc1cncc(-c2nccc(NCc3ccncc3)n2)c1 [Compound 230, [2-(5-Methoxy-pyridin-3-yl)-pyrimidin-4-yl]-pyridin-4-ylmethyl-amine]	> 10000
Fc1ccc(CNc2cccc(-c3cncc(C(F)(F)F)c3)n2)c(F)c1 [Compound 231, (2,4-Difluoro-benzyl)-(5′-trifluoromethyl-[2,3′]bipyridinyl-6-yl)-amine]	< 100
COc1cc(NC(=O)c2cc(NCc3ccc(F)cc3F)nc(-c3cncc(C(F)(F)F)c3)n2)ccn1 [Compound 232, 6-(2,4-Difluoro-benzylamino)-2-(5-trifluoromethyl-pyridin-3-yl)-pyrimidine-4-carboxylic acid (2-methoxy-pyridin-4-yl)-amide]	1000 to 10000
COc1ncccc1NC(=O)c1cc(NCc2ccc(F)cc2F)nc(-c2cncc(C(F)(F)F)c2)n1 [Compound 233, 6-(2,4-Difluoro-benzylamino)-2-(5-trifluoromethyl-pyridin-3-yl)-pyrimidine-4-carboxylic acid (2-methoxy-pyridin-3-yl)-amide]	100 to 1000
CNC(=O)c1ccccc1CNc1ccnc(-c2cncc(C(F)(F)F)c2)n1 [Compound 234, N-Methyl-2-{[2-(5-trifluoromethyl-pyridin-3-yl)-pyrimidin-4-ylamino]-methyl}-benzamide]	1000 to 10000
O=C1c2ccccc2CN1c1ccnc(-c2cncc(C(F)(F)F)c2)n1 [Compound 235, 2-[2-(5-Trifluoromethyl-pyridin-3-yl)-pyrimidin-4-yl]-2,3-dihydro-isoindol-1-one]	> 10000
CS(=O)(=O)Nc1cccc(-c2nc(NCc3ccc(F)cc3F)c3nc[nH]c3n2)c1 [Compound 236, N-{3-[6-(2,4-Difluoro-benzylamino)-9H-purin-2-yl]-phenyl}-methanesulfonamide]	> 10000
Fc1ccc(CNc2nc(-c3cncc(C(F)(F)F)c3)nc3[nH]cnc23)c(F)c1 [Compound 237, (2,4-Difluoro-benzyl)-[2-(5-trifluoromethyl-pyridin-3-yl)-9H-purin-6-yl]-amine]	100 to 1000
FC(F)(F)c1cncc(-c2nccc(NCc3cccnc3)n2)c1 [Compound 238, Pyridin-3-ylmethyl-[2-(5-trifluoromethyl-pyridin-3-yl)-pyrimidin-4-yl]-amine]	100 to 1000
FC(F)(F)c1cncc(-c2nccc(Nc3cn[nH]c3)n2)c1 [Compound 239, (1H-Pyrazol-4-yl)-[2-(5-trifluoromethyl-pyridin-3-yl)-pyrimidin-4-yl]-amine]	1000 to 10000

Structure (SMILES)	IC50 [nM]
Fc1ccc(CNc2ccnc(-c3cccc(C(F)(F)F)c3)n2)c(F)c1 [Compound 240, (2,4-Difluoro-benzyl)-[2-(3-trifluoromethyl-phenyl)-pyrimidin-4-yl]-amine]	> 10000
CS(=O)(=O)Nc1cccc(-c2nccc(NCc3ccc(F)cc3F)n2)c1 [Compound 241, N-{3-[4-(2,4-Difluoro-benzylamino)-pyrimidin-2-yl]-phenyl}-methanesulfonamide]	> 10000
CS(=O)(=O)Nc1cccc(-c2nc(NCc3ccc(F)cc3F)c3ncn(C4CCCCO4)c3n2)c1 (stereo not shown) [Compound 242, N-{3-[6-(2,4-Difluoro-benzylamino)-9-(tetrahydro-pyran-2-yl)-9H-purin-2-yl]-phenyl}-methanesulfonamide]	> 10000
Fc1ccc(CNc2nc(-c3cncc(C(F)(F)F)c3)nc3c2ncn3C2CCCCO2)c(F)c1 (stereo not shown) [Compound 243, (2,4-Difluoro-benzyl)-[9-(tetrahydro-pyran-2-yl)-2-(5-trifluoromethyl-pyridin-3-yl)-9H-purin-6-yl]-amine]	100 to 1000
Fc1cc(Cl)ccc1CNc1nccc(-c2cncc(C(F)(F)F)c2)n1 [Compound 244, (4-Chloro-2-fluoro-benzyl)-[4-(5-trifluoromethyl-pyridin-3-yl)-pyrimidin-2-yl]-amine]	100 to 1000
CS(=O)(=O)Nc1cccc(-c2nccc(NCc3ccc(F)cc3C(F)(F)F)n2)c1 [Compound 245, N-{3-[4-(4-Fluoro-2-trifluoromethyl-benzylamino)-pyrimidin-2-yl]-phenyl}-methanesulfonamide]	> 10000
Cn1cc(NC(=O)c2cc(NCc3ccc(F)cc3F)nc(-c3cncc(C(F)(F)F)c3)n2)cn1 [Compound 246, 6-(2,4-Difluoro-benzylamino)-2-(5-trifluoromethyl-pyridin-3-yl)-pyrimidine-4-carboxylic acid (1-methyl-1H-pyrazol-4-yl)-amide]	100 to 1000
Fc1ccc(CNc2nccc(-c3cncc(C(F)(F)F)c3)n2)c(C(F)(F)F)c1 [Compound 247, (4-Fluoro-2-trifluoromethyl-benzyl)-[4-(5-trifluoromethyl-pyridin-3-yl)-pyrimidin-2-yl]-amine]	< 100
Fc1ccc(CNc2nccc(-c3cncc(C(F)(F)F)c3)n2)c(F)c1 [Compound 248, (2,4-Difluoro-benzyl)-[4-(5-trifluoromethyl-pyridin-3-yl)-pyrimidin-2-yl]-amine]	< 100
CS(=O)(=O)N1CCOC(CNc2ccnc(-c3cncc(C(F)(F)F)c3)n2)C1 (stereo not shown) [Compound 249, (4-Methanesulfonyl-morpholin-2-ylmethyl)-[2-(5-trifluoromethyl-pyridin-3-yl)-pyrimidin-4-yl]-amine]	1000 to 10000
CCOC(=O)c1ccccc1Nc1ccnc(-c2cncc(C(F)(F)F)c2)n1 [Compound 250, 2-[2-(5-Trifluoromethyl-pyridin-3-yl)-pyrimidin-4-ylamino]-benzoic acid ethyl ester]	> 10000
CN(c1ncccc1CNc1nccc(-c2cncc(C(F)(F)F)c2)n1)S(C)(=O)=O [Compound 251, N-Methyl-N-(3-{[4-(5-trifluoromethyl-pyridin-3-yl)-pyrimidin-2-ylamino]-methyl}-pyridin-2-yl)-methanesulfonamide]	1000 to 10000
Fc1ccc(CNc2cc(-c3cncc(C(F)(F)F)c3)ncn2)c(C(F)(F)F)c1 [Compound 252, (4-Fluoro-2-trifluoromethyl-benzyl)-[6-(5-trifluoromethyl-pyridin-3-yl)-pyrimidin-4-yl]-amine]	1000 to 10000
Fc1cc(Cl)ccc1CNc1cc(-c2cncc(C(F)(F)F)c2)ncn1 [Compound 253, (4-Chloro-2-fluoro-benzyl)-[6-(5-trifluoromethyl-pyridin-3-yl)-pyrimidin-4-yl]-amine]	1000 to 10000
Fc1ccc(CNc2cc(-c3cncc(C(F)(F)F)c3)ncn2)c(F)c1 [Compound 254, (2,4-Difluoro-benzyl)-[6-(5-trifluoromethyl-pyridin-3-yl)-pyrimidin-4-yl]-amine]	> 10000
CN(C)C(=O)c1ccccc1Nc1ccnc(-c2cncc(C(F)(F)F)c2)n1 [Compound 255, N,N-Dimethyl-2-[2-(5-trifluoromethyl-pyridin-3-yl)-pyrimidin-4-ylamino]-benzamide]	> 10000
CNC(=O)c1ccccc1Nc1ccnc(-c2cncc(C(F)(F)F)c2)n1 [Compound 256, N-Methyl-2-[2-(5-trifluoromethyl-pyridin-3-yl)-pyrimidin-4-ylamino]-benzamide]	> 10000
Cn1cc(-c2cc(NCc3ccc(F)cc3F)nc(-c3cncc(C(F)(F)F)c3)n2)cn1 [Compound 257, (2,4-Difluoro-benzyl)-[6-(1-methyl-1H-pyrazol-4-yl)-2-(5-trifluoromethyl-pyridin-3-yl)-pyrimidin-4-yl]-amine]	100 to 1000
Cn1cc(-c2cc(NCc3ccc(F)cc3F)nc(-c3cnn(C)c3)n2)cn1 [Compound 258, [2,6-Bis-(1-methyl-1H-pyrazol-4-yl)-pyrimidin-4-yl]-(2,4-difluoro-benzyl)-amine]	1000 to 10000
CN1CCN(C(=O)c2cc(NCc3ccc(F)cc3F)nc(-c3cncc(C(F)(F)F)c3)n2)CC1 [Compound 259, [6-(2,4-Difluoro-benzylamino)-2-(5-trifluoromethyl-pyridin-3-yl)-pyrimidin-4-yl]-(4-methyl-piperazin-1-yl)-methanone]	100 to 1000
